# Test results from publication PMC10210221, “Interaction of Pexiganan (MSI-78)-Derived Analogues Reduces Inflammation and TLR4-Mediated Cytokine Secretion: A Comparative Study” (ACS Omega, 2023).
# Where a SMILES comes first, the peptide text is derived from it. Where no end group is shown, it is not given here. [ ]: non-standard residue; d: D form.
# How the values were obtained:
# pig erythrocytes = format: cell-based; conditions: pH 7.3
# Protocol: To examine the hemolytic properties of the peptides, a concentration of 100 μM was used. A 4% suspension of pig erythrocytes, freshly collected and washed three times in phosphate-buffered saline (PBS, pH 7.3), was used for this purpose. After incubation at 37 °C for 1 h, the suspension was centrifuged at 800g for 10 min, and the absorbance at 540 nm was measured. Complete hemolysis was determined by adding 1% Triton X-100, while adding only PBS was used to determine 0% hemolysis.The hemolysis calculation was as follows: % hemolysis = (ODPeptide – ODBuffer)/(ODTriton1% – ODBuffer) × 100.
# [1] = XTT cytotoxicity / LD50 calculation; format: cell-based, murine; conditions: mouse, RAW 264.7 cells (macrophages); peptides 2 h, then XTT 2 h; concentration at which 50% of cells were dead, from linear graph
# Protocol: (§1) LD50 is the calculated amount of chemical that causes the death of 50% of the population tested, in this case, RAW 264.7. Each well was seeded with 1 × 10^5 cells 1 day before the experiment. Peptides were added in several doses and incubated with the cells for 2 h, followed by 2 h of XTT. We performed a linear graph and calculated the concentration in which 50% were dead.
# (§2) DMEM supplemented with low endotoxin FBS (10%), L-glutamine (1%), sodium pyruvate (1%), pen–strep (1%), and unessential amino acids (1%) was used to grow RAW 264.7 cells at 37 °C in a humidified atmosphere containing 5% CO2 and 95% air. A 96-well Falcon plate was utilized for the assay, with each well containing 1 × 10^5 cells in a 200 μL medium, cultured overnight and washed with phosphate-buffered saline (PBS) before the experiment. Peptides were added to the wells at various concentrations for 2 h, followed by XTT with fresh medium for another 2 h. The optical density was measured at 450 nm using an enzyme-linked immunosorbent assay plate reader, and cell viability was determined relative to the control.
# S. Typhi ATCC 14028s = format: cell-based, Salmonella Typhi; conditions: ATCC 14028, 18 h
# Protocol: (§3) The peptide’s minimal inhibitory concentration (MIC) was examined as previously described.[44] In brief, sterile 96-well U-bottom polystyrene plates were used to evaluate peptide activity. Bacterial cells including S. Typhi ATCC 14028s, E. coli ATCC 35218, S. aureus ATCC P8538, and Lactobacilli ATCC 25258 were cultured in Mueller Hinton broth (MHB) at 37 °C overnight. The cells were then washed, centrifuged, and re-suspended in MHB medium. Afterward, 50 μL aliquots of suspended bacteria (1 × 10^6 colony forming units, CFU mL^–1) were added to 50 μL BM2 medium, which contained peptides in serial twofold dilutions. The plates were then incubated at 37 °C for 18 h. The inhibition of growth was determined by measuring the absorbance at 600 nm using a microplate autoreader. The MIC was defined as the concentration at which 90% growth inhibition was observed after 18 h of incubation.
# E. coli ATCC 35218 = format: cell-based, Escherichia coli; conditions: ATCC 35218, 18 h
# Protocol: as §3
# S. aureus ATCC P8538 = format: cell-based, Staphylococcus aureus; conditions: ATCC P8538, 18 h
# Protocol: as §3
# Lactobacilli ATCC 25258 = format: cell-based; conditions: ATCC 25258, 18 h
# Protocol: as §3
# RAW 264.7 cells = experiment: XTT cytotoxicity / LD50 calculation; format: cell-based, murine; conditions: XTT, RAW 264.7 macrophages
# Protocol: as §1, §2
Molecule,% hemolysis (100 μM) (pig erythrocytes),CC50 at 2 h [1],MIC S. Typhi ATCC 14028s (S. Typhi ATCC 14028s),MIC E. coli ATCC 35218 (E. coli ATCC 35218),MIC S. aureus ATCC P8538 (S. aureus ATCC P8538),MIC Lactobacilli ATCC 25258 (Lactobacilli ATCC 25258),Concentration toxic to RAW 264.7 cells (RAW 264.7 cells)
CC[C@H](C)[C@H](NC(=O)CNC(=O)[C@H](CCCCN)NC(=O)[C@H](CCCCN)NC(=O)[C@H](CCCCN)NC(=O)[C@H](CCCCN)NC(=O)[C@@H](N)CCCCN)C(=O)NCC(=O)N[C@H](Cc1ccccc1)C(=O)N[C@@H](CC(C)C)C(=O)N[C@@H](C)C(=O)N[C@H](Cc1ccccc1)C(=O)NCC(=O)N[C@@H](C)C(=O)N[C@@H](Cc1ccccc1)C(=O)N[C@H](C(=O)N[C@H](C(=O)N[C@@H](CC(C)C)C(=O)N[C@@H](CCCCN)C(=O)N[C@@H](CCCCN)C(=O)N[C@@H](CCCCN)C(=O)N[C@@H](CCCCN)C(N)=O)[C@@H](C)CC)C(C)C [MSI-Seg-F2F] (H-KKKKKGIG[dF]LA[dF]GAFVILKKKK-NH2),8.1 ± 3.2%,> 100 µM,25 µM,12.5 µM,12.5 µM,12.5 µM,
"GIGKFLKKAKKFGKAFVKILKK-NH2 [MSI-78, Pexiganan]",15.2 ± 1.1%,43.1 µM,12.5 µM,3.12 µM,6.25 µM,1.56 µM,40 µM
KKKKKFIGLFAGGIVLAFKKKK-NH2 [MSI-Seg-Scr],3.9 ± 1.4%,> 100 µM,25 µM,12.5 µM,12.5 µM,12.5 µM,
KKKKKGIGFLAFGAFVILKKKK-NH2 [MSI-Seg],16.6 ± 4.2%,> 100 µM,25 µM,12.5 µM,12.5 µM,>50 µM,
KKKKKGIGGLAGGAFVILKKKK-NH2 [MSI-Seg-F2G],1.2 ± 30.2%,> 100 µM,>50 µM,>50 µM,25 µM,>50 µM,
KKKKKKKGIGFLAFGAFVKILK-NH2 [MSI-N7K],10 ± 5.6%,60.9 µM,25 µM,25 µM,25 µM,25 µM,60 µM
